The values below come from PubChem BioAssay AID256 (DTP/NCI, 2004).

Several values for one entry are separate records, joined by “and”; a condition that tells them apart may be missing. Equal values may be shown once. Toxic doses and inconclusive results are not listed.

In this test the test system is CD2F1 mice, L1210 leukemia ip, survival T/C. Briefly: NCI In Vivo Anticancer Drug Screen. Data for tumor model L1210 Leukemia (intraperitoneal) in CD2F1 (CDF1) mice. The following applies: higher = longer survival. Summed up:
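Antitumor effect is scored in animals hosting a serially transplanted tumor. Values compare compound-dosed animals against vehicle-only controls as a simple quotient.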

[1] abbreviates: endpoint: mean survival time, dose: 100.0 mg/kg/injection, schedule: Q04DX003 (ip), vehicle: saline with Tween-80.
Setting [2] is: endpoint: mean survival time, dose: 200.0 mg/kg/injection, schedule: Q04DX003 (ip), vehicle: saline with Tween-80.
Setting [3] is: endpoint: mean survival time, dose: 400.0 mg/kg/injection, schedule: Q04DX003 (ip), vehicle: saline with Tween-80.
[4] abbreviates: endpoint: mean survival time, dose: 12.5 mg/kg/injection, schedule: Q01DX009 (ip), vehicle: saline.
[5] abbreviates: endpoint: mean survival time, dose: 25.0 mg/kg/injection, schedule: Q01DX009 (ip), vehicle: saline.
Setting [6] is: endpoint: mean survival time, dose: 25.0 mg/kg/injection, schedule: Q04DX002 (ip), vehicle: saline with Tween-80.
The mark [7] stands for this setting: endpoint: mean survival time, dose: 50.0 mg/kg/injection, schedule: Q01DX009 (ip), vehicle: saline.
[8] abbreviates: endpoint: mean survival time, dose: 100.0 mg/kg/injection, schedule: Q01DX009 (ip), vehicle: saline.
[9] abbreviates: endpoint: mean survival time, dose: 100.0 mg/kg/injection, schedule: Q04DX002 (ip), vehicle: saline with Tween-80.
Where [10] appears, read: endpoint: mean survival time, dose: 200.0 mg/kg/injection, schedule: Q01DX001 (ip), vehicle: saline with Tween-80.
[11] abbreviates: endpoint: mean survival time, dose: 200.0 mg/kg/injection, schedule: Q04DX002 (ip), vehicle: saline with Tween-80.
[12] abbreviates: endpoint: mean survival time, dose: 400.0 mg/kg/injection, schedule: Q01DX001 (ip), vehicle: saline with Tween-80.
The mark [13] stands for this setting: endpoint: mean survival time, dose: 400.0 mg/kg/injection, schedule: Q04DX002 (ip), vehicle: saline with Tween-80.
Where [14] appears, read: endpoint: mean survival time, dose: 100.0 mg/kg/injection, schedule: Q04DX003 (ip), vehicle: saline.
The mark [15] stands for this setting: endpoint: mean survival time, dose: 200.0 mg/kg/injection, schedule: Q04DX003 (ip), vehicle: saline.

As to `CCCCCCCC(=O)O[C@H]1[C@H]2[C@@H](CC1(C)C)C(=O)[C@]13O[C@H]1C(=O)[C@]1(CO1)[C@]23C`, the T/C was 101 % of control (endpoint: median survival time, dose: 1.25 mg/kg/injection, schedule: Q01DX009 (ip), vehicle: saline with Tween-80); 104 % of control (endpoint: median survival time, dose: 2.5 mg/kg/injection, schedule: Q01DX009 (ip), vehicle: saline with Tween-80); 104 % of control (endpoint: median survival time, dose: 5.0 mg/kg/injection, schedule: Q01DX009 (ip), vehicle: saline with Tween-80); 107 % of control (endpoint: median survival time, dose: 10.0 mg/kg/injection, schedule: Q01DX009 (ip), vehicle: saline with Tween-80); 107 % of control (endpoint: median survival time, dose: 20.0 mg/kg/injection, schedule: Q01DX009 (ip), vehicle: saline with Tween-80).
For the compound `CCC(C(=O)OCCNC1CCCCC1)c1ccccc1` (stereo not drawn), the T/C (endpoint: mean survival time, dose: 75.0 mg/kg/injection, schedule: Q01DX001 (ip), vehicle: saline) is 110 % of control.
On to `CNC(=O)N(C)c1ccccc1`, for which the T/C runs as follows: (endpoint: mean survival time, dose: 100.0 mg/kg/injection, schedule: Q04DX002 (ip), vehicle: saline) 101 % of control; (endpoint: mean survival time, dose: 200.0 mg/kg/injection, schedule: Q04DX002 (ip), vehicle: saline) 101 % of control; (endpoint: mean survival time, dose: 400.0 mg/kg/injection, schedule: Q04DX002 (ip), vehicle: saline) 101 % of control.
Turning to `CCCCCCCCCCCCCC(=O)OC1C(CO)OC2C1Oc1nc(=N)ccn12` (stereo not drawn), the T/C was 153 % of control (endpoint: mean survival time, dose: 25.0 mg/kg/injection, schedule: Q01DX009 (ip), vehicle: other); 212 % of control (endpoint: mean survival time, dose: 50.0 mg/kg/injection, schedule: Q01DX009 (ip), vehicle: other); 278 % of control (endpoint: mean survival time, dose: 100.0 mg/kg/injection, schedule: Q01DX009 (ip), vehicle: other).
Take `COc1ccc(C(=Cc2cc(OC(C)=O)c3ccccc3c2OC(C)=O)c2ccc(OC)cc2)cc1`: the T/C under setting [1] was 97 % of control, the T/C under setting [2] was 89 % of control and the T/C under setting [3] is 91 % of control.
Regarding `CS(=O)(=O)CC#N`, the T/C was 91 % of control and 109 % of control (endpoint: mean survival time, dose: 6.25 mg/kg/injection, schedule: Q04DX002 (ip), vehicle: saline with Tween-80); 93 % of control (endpoint: mean survival time, dose: 12.5 mg/kg/injection, schedule: Q01DX001 (ip), vehicle: saline with Tween-80); 92 % of control under setting [4]; 91 % of control and 102 % of control (endpoint: mean survival time, dose: 12.5 mg/kg/injection, schedule: Q04DX002 (ip), vehicle: saline with Tween-80); 97 % of control (endpoint: mean survival time, dose: 12.5 mg/kg/injection, schedule: Q04DX003 (ip), vehicle: saline with Tween-80); 106 % of control (endpoint: mean survival time, dose: 25.0 mg/kg/injection, schedule: Q01DX001 (ip), vehicle: saline with Tween-80). In addition, the T/C was 92 % of control and 98 % of control under setting [5]; 94 % of control and 101 % of control under setting [6]; 99 % of control and 103 % of control (endpoint: mean survival time, dose: 25.0 mg/kg/injection, schedule: Q04DX002 (ip), vehicle: saline); 97 % of control (endpoint: mean survival time, dose: 25.0 mg/kg/injection, schedule: Q04DX003 (ip), vehicle: saline with Tween-80); 100 % of control (endpoint: mean survival time, dose: 50.0 mg/kg/injection, schedule: Q01DX001 (ip), vehicle: saline with Tween-80); 100 % of control (endpoint: mean survival time, dose: 50.0 mg/kg/injection, schedule: Q04DX002 (ip), vehicle: saline).
On to `CN1CCC(=C(C#N)C#N)CC1`, for which the T/C was 103 % of control under setting [5], 94 % of control under setting [7] and 96 % of control under setting [8].
As for `CN1CC2(Cc3ccccc3)c3ccccc3NC2(NC(=O)CCl)C1=O` (stereo not drawn), the T/C under setting [6] was 87 % of control; the T/C (endpoint: mean survival time, dose: 50.0 mg/kg/injection, schedule: Q04DX002 (ip), vehicle: saline with Tween-80) was 95 % of control; the T/C under setting [9] is 91 % of control; the T/C under setting [10] was 92 % of control; the T/C under setting [11] was 89 % of control; the T/C under setting [12] is 96 % of control.
As to `CC(C)(C)NC[Si](C)(C)C`, the T/C runs as follows: under setting [5], 94 % of control; under setting [7], 101 % of control.
As for `CC12C(=O)C(C)(C(c3ccccc3)=C1c1ccccc1)C([N+](=O)[O-])C2c1ccccc1` (stereo not drawn), the T/C was 94 % of control under setting [9], 97 % of control under setting [11] and 94 % of control under setting [13].
Regarding `COc1ccc(C(O)c2ncccc2C)cc1OC` (stereo not drawn), the T/C was 100 % of control (endpoint: mean survival time, dose: 12.5 mg/kg/injection, schedule: Q01DX009 (ip), vehicle: water); 98 % of control (endpoint: mean survival time, dose: 25.0 mg/kg/injection, schedule: Q01DX009 (ip), vehicle: water); 104 % of control (endpoint: mean survival time, dose: 50.0 mg/kg/injection, schedule: Q01DX009 (ip), vehicle: water); 100 % of control (endpoint: mean survival time, dose: 100.0 mg/kg/injection, schedule: Q01DX009 (ip), vehicle: water); 95 % of control (endpoint: mean survival time, dose: 200.0 mg/kg/injection, schedule: Q01DX009 (ip), vehicle: water).
With `O=S1(=O)CC(S(=O)(=O)O)C(S(=O)(=O)O)C1` (stereo not drawn), the T/C by setting is: under setting [14], 93 % of control; under setting [15], 101 % of control; (endpoint: mean survival time, dose: 400.0 mg/kg/injection, schedule: Q04DX003 (ip), vehicle: saline) 93 % of control.
Regarding `CCOC(=O)CCl`, the T/C is 95 % of control (endpoint: mean survival time, dose: 100.0 mg/kg/injection, schedule: Q04DX003 (ip), vehicle: other) and 90 % of control (endpoint: mean survival time, dose: 200.0 mg/kg/injection, schedule: Q04DX003 (ip), vehicle: other).
With `COC(=O)C(C(=O)c1ccccc1)c1ccccc1` (stereo not drawn), the T/C was 94 % of control (endpoint: mean survival time, dose: 100.0 mg/kg/injection, schedule: Q01DX001 (ip), vehicle: saline with Tween-80); 97 % of control under setting [10]; 90 % of control under setting [12].
For `CC1(C)COC(CC2(O)CCCCCC2)=N1`, the T/C under setting [9] was 101 % of control; the T/C under setting [1] was 95 % of control; the T/C under setting [11] was 96 % of control; the T/C under setting [2] was 88 % of control; the T/C under setting [13] was 101 % of control; the T/C under setting [3] is 93 % of control.
Take `CN(C)c1ccc(-c2c3cc(O)c(=O)cc-3oc3cc(O)c(O)cc23)cc1`: the T/C by setting is: (endpoint: mean survival time, dose: 50.0 mg/kg/injection, schedule: Q01DX009 (ip), vehicle: saline with Tween-80) 92 % of control; (endpoint: mean survival time, dose: 100.0 mg/kg/injection, schedule: Q01DX009 (ip), vehicle: saline with Tween-80) 95 % of control; (endpoint: mean survival time, dose: 200.0 mg/kg/injection, schedule: Q01DX009 (ip), vehicle: saline with Tween-80) 91 % of control.
As for `CCCC(CC)(C[NH-])C[NH-].[Cl][Pt+2][Cl]`, the T/C was 120 % of control and 109 % of control (endpoint: mean survival time, dose: 6.25 mg/kg/injection, schedule: Q04DX003 (ip), vehicle: saline); 121 % of control and 109 % of control (endpoint: mean survival time, dose: 12.5 mg/kg/injection, schedule: Q04DX003 (ip), vehicle: saline); 114 % of control (endpoint: mean survival time, dose: 25.0 mg/kg/injection, schedule: Q04DX003 (ip), vehicle: saline); 158 % of control under setting [14]; 114 % of control and 105 % of control under setting [15].
On to `CCCCCCCCCCCCCCCC(=O)Nc1ccc2c(c1)[nH]c(=O)c1cc(NC(=O)CCCCCCCCCCCCCCC)ccc12`, for which the T/C reads like this: under setting [9], 98 % of control; under setting [11], 111 % of control; under setting [13], 102 % of control.
Take `O=C1c2ccccc2C(=O)C1(Cl)C(Cl)c1ccc([N+](=O)[O-])cc1` (stereo not drawn): the T/C is 100 % of control (endpoint: mean survival time, dose: 100.0 mg/kg/injection, schedule: Q04DX003 (ip), vehicle: Klucel (hydroxypropylcellulose) (HPC)); 106 % of control (endpoint: mean survival time, dose: 200.0 mg/kg/injection, schedule: Q04DX003 (ip), vehicle: Klucel (hydroxypropylcellulose) (HPC)); 106 % of control (endpoint: mean survival time, dose: 400.0 mg/kg/injection, schedule: Q04DX003 (ip), vehicle: Klucel (hydroxypropylcellulose) (HPC)).
As to `CC(CC(=O)Nc1ccc(S(=O)(=O)F)cc1)c1ccc(N2C(N)=NC(N)=NC2(C)C)cc1` (stereo not drawn), the T/C was 109 % of control under setting [4]; 109 % of control under setting [5]; 113 % of control under setting [7]; 113 % of control under setting [8]; 116 % of control (endpoint: mean survival time, dose: 100.0 mg/kg/injection, schedule: Q#A X018 (ip), vehicle: saline); 119 % of control (endpoint: mean survival time, dose: 150.0 mg/kg/injection, schedule: Q#A X018 (ip), vehicle: saline). For the same compound, the T/C runs as follows: (endpoint: mean survival time, dose: 200.0 mg/kg/injection, schedule: Q01DX009 (ip), vehicle: saline) 113 % of control and 121 % of control; (endpoint: mean survival time, dose: 300.0 mg/kg/injection, schedule: Q01DX009 (ip), vehicle: saline) 118 % of control; (endpoint: mean survival time, dose: 400.0 mg/kg/injection, schedule: Q01DX009 (ip), vehicle: saline) 124 % of control.
